Source: patent publication EP4635500A1, “THERAPEUTIC AGENT FOR BACTERIAL INFECTION” (Sumitomo Pharma Co., Ltd., priority 2022, dated 2024)

Legend:
[1] = system: A. baumannii; assay: MIC, broth microdilution, CDC/FDA Antibiotic Resistance Isolate Bank (Example 7, Tables 9, 13, 14); assay type: cell-based, Acinetobacter baumannii
[2] = biological target: OXA-23 (Acinetobacter baumannii, UniProt Q9L4P2); assay: Ki,app against β-lactamase (Example 1, Table 1); assay type: biochemical; conditions: OXA-23, class D; 30 min preincubation; n.d.: too low inhibitor activity at 100 µmol/L; read-out: Ki app
Experimental: After stirring, the resultants were preincubated for 30 minutes at 37°C. The reporter substrate solution was incubated at 37°C for 15 minutes or more, dispensed at 100 µL/well, and measured for a change in absorbance by a microplate reader at 37°C. For each measured concentration of the positive control and the inhibitor, an initial rate (µmol/L/sec) was determined from a time to be analyzed and a change in product amount. […] Ki,app for each inhibitor concentration was calculated from the slope, the inhibitor concentration, an enzyme concentration, Km, and kcat using Expression 2. If the initial rate was determined at two or more concentrations for each inhibitor and a plurality of Ki,app could be obtained, an average value was used as the Ki,app for the inhibitor. t−tc = Km /Vmax x ([Inhibitor]/Ki,app)x Ln[S]0 /[S] [formula] Ki,app = [Inhibitor]x Km /(kcatx[Enzyme])x 1/slope [formula]
The experiment was performed in duplicate.

[3] = system: A. baumannii; assay: MIC, broth microdilution, 6 strains (Example 6, Table 7); assay type: cell-based

Chain of OXA-23 (Q9L4P2 18-273): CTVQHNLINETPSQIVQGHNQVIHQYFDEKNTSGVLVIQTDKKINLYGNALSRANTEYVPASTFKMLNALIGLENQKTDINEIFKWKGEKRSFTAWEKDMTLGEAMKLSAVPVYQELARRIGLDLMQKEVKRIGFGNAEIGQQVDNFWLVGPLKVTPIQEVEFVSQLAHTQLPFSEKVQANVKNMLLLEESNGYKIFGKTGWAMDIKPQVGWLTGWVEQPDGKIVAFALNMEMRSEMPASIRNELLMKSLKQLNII

C[C@H]1COc2c(N3CCN(C)CC3)c(F)cc3c(=O)c(C(=O)O)cn1c23 [Levotloxacin]
64 mg/L: MIC ([1]; A. baumannii KUB No. 5706, AR Bank #273, OXA-23, OXA-66) | MIC ([1]; A. baumannii KUB No. 5718, AR Bank #285, OXA-24, OXA-65)
32 mg/L: MIC ([1]; A. baumannii KUB No. 5575, AR Bank #78, OXA-71)
4 mg/L: MIC ([1]; A. baumannii KUB No. 5567, AR Bank #70, OXA-58, OXA-100)
8 mg/L: MIC ([1]; A. baumannii KUB No. 5580, AR Bank #83, OXA-23, OXA-69, NDM-1) | MIC ([1]; A. baumannii KUB No. 5585, AR Bank #88, OXA-64, NDM-1) | MIC ([1]; A. baumannii KUB No. 5599, AR Bank #102, OXA-66) | MIC ([1]; A. baumannii KUB No. 5708, AR Bank #275, OXA-23, OXA-66) | MIC ([1]; A. baumannii KUB No. 5711, AR Bank #278, OXA-23, OXA-66) | MIC ([1]; A. baumannii KUB No. 5712, AR Bank #279, OXA-23, OXA-66) | MIC ([1]; A. baumannii KUB No. 5714, AR Bank #281, OXA-82) | MIC ([1]; A. baumannii KUB No. 5715, AR Bank #282, OXA-23, OXA-66)
16 mg/L: MIC ([1]; A. baumannii KUB No. 5598, AR Bank #101, OXA-24, OXA-65) | MIC ([1]; A. baumannii KUB No. 5707, AR Bank #274, OXA-66, OXA-72) | MIC ([1]; A. baumannii KUB No. 5709, AR Bank #276, no carbapenemase genes (-)) | MIC ([1]; A. baumannii KUB No. 5710, AR Bank #277, OXA-24, OXA-65) | MIC ([1]; A. baumannii KUB No. 5713, AR Bank #280, OXA-66) | MIC ([1]; A. baumannii KUB No. 5716, AR Bank #283, OXA-23, OXA-66) | MIC ([1]; A. baumannii KUB No. 5717, AR Bank #284, OXA-24, OXA-65)

O=C(NC1CCNCC1)[C@@H]1CC[C@@H]2CN1C(=O)N2OS(=O)(=O)O [Relebactam, relebactam]
5.64 ± 0.522 µM: Ki [2]

Colistin sulfate
1 mg/L: MIC ([3]; A. baumannii strain with AMR gene ADC-25, OXA-23, OXA-66, TEM-ID, Carbapenem-resistant) | MIC ([3]; A. baumannii strain with AMR gene ADC-25, XA-23, OXA-66, strA, strB, sul2, TEM-1D, Carbapenem-resistant) | MIC ([3]; A. baumannii strain with AMR gene NDM-1, OXA-64, Carbapenem-resistant) | MIC ([3]; A. baumannii strain with AMR gene OXA-23, OXA-69, TEM-1D, Carbapenem-resistant) | MIC ([3]; A. baumannii strain with AMR gene OXA-24, OXA-65, Carbapenem-resistant)
2 mg/L: MIC ([3]; A. baumannii strain with AMR gene ADC-25, OXA-66, TEM-1D, Carbapenem-susceptible)
